In patent US20020137891A1, “Protein scaffold and its use to multimerise monomeric polypeptides” (priority 1999, published 2002):

Tests used:
[1] = biological target: T1, pig heart mitochondrial malate dehydrogenase (mtMDH) (Sus scrofa, UniProt P00346); experiment: In vitro refolding and aggregation protection of heat- and dithiothreitol-denatured mtMDH; format: biochemical
T1 construct: pig heart mitochondrial malate dehydrogenase (mtMDH; Boehringer-Mannheim); purchased Boehringer-Mannheim; host or cells: pig heart
T1 sequence (P00346 25-338): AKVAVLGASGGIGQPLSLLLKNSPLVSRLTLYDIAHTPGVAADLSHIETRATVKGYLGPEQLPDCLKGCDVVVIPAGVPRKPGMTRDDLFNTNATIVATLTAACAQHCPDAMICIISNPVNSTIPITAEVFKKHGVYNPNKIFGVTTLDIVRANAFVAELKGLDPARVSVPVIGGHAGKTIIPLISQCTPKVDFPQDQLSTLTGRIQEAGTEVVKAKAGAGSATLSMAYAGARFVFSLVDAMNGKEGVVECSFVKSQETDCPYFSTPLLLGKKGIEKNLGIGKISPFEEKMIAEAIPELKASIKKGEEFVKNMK
Method: In vitro refolding experiments. Refolding assays of pig heart mitochondrial malate dehydrogenase (mtMDH; Boehringer-Mannheim) and aggregation protection were carried out essentially as described (Peres Ben-Zvi, A. P., Chatellier, J., Fersht, A. R. & Goloubinoff, P. (1998) Proc. Natl. Acad. Sci. U.S.A. 95, 15275-15280). The concentrations of MC7 used were between 8-16 μM (reporter to protomer).

[2] = test system: AI90 (ΔgroEL::kan^R) [pBADEL] E. coli strain; experiment: Plating ability of transformed AI90 (ΔgroEL::kan^R) [pBAD-EL] at 37° C. on depletion of GroEL; format: cell-based
Method: AI90 (ΔgroEL::kan^R) [pBAD-EL] cells were transformed with the pJC vector series. Transformants were selected at 37° C. on LB supplemented with 50 μg.ml^−1 of kanamycin, 120 μg.mL^−1 of ampicillin, 25 μg.mL^1 of chloramphenicol and 0.2% L(+)arabinose. Depletion of GroEL protein was analysed at 37° C. by plating the same quantity of AI90 [pBAD-EL+pJC vectors] cells on LB plates containing 1% D(+)glucose or various amount of arabinose.
Each experiment was performed in triplicate. Plasmids carrying no groE genes or encoding the GroE proteins were used as negative or positive controls, respectively.

bacteriophage T4 (T4D0) = experiment: Growth (plaque formation) of bacteriophage T4 at 37° C. in transformed wild-type and groEL mutant strains; format: cell-based, E. coli; set-up: key: +++: normal plaque-forming ability relative to wild-type groEL^+ strain, in terms of both number and size; ++: 5-fold fewer plaques relative to wild-type groEL^+ strain, or both; 10-fold fewer plaques, or plaque size reduced relative to wild-type groEL^+ strain, or both; +/−: 10^2-fold fewer plaques and plaque size reduced relative to wild-type groEL^+ strain; no visible plaques (<10^−4); settings: pJC plasmid
Description: Bacterial and bacteriophage strains. The E. coli strains used in this study were: C41(DE3), a mutant of BL21(DE3) capable of expressing toxic genes (Miroux, B. & Walker, J. E. (1996) J. Mol. Biol. 260, 289-298); SV2 (B178groEL44), SV3 (B178groEL59) and SV6 (B178groEL673): isogenic strains carrying temperature-sensitive alleles of groEL; SV1(=B178) (Georgopoulos, C., Hendrix, R. W., Casjens, S. R. & Kaiser, A. D. (1973) J. Mol. Biol. 76, 45-60), AI90 (ΔgroEL::kan^R) [pBAD-EL] (Ivic, A., Olden, D., Wallington, E. J. & Lund, P. A. (1997) Gene 194, 1-8), and TG1 (Gibson, T. J. (1984) Ph.D. thesis, University of Cambridge, U.K). Bacteriophage λb2cI (Zeilstra-Ryalls, J., Fayet, O., Baird, L. & Georgopoulos, C. (1993) J. Bacteriol. 175, 1134-1143) was used according to standard methods (Arber, W., Enquist, L., Hohn, B., Murray, N. E. & Murray, K. (1983) in Lambda II., ed. R. W. Hendrix, J. W. r., F. W. Stahl and R. A. Weisberg (Cold Spring Harbor Laboratory, Cold Spring Harbor, N.Y.), pp. 433-466); plaque formation was assayed at 30° C. T4D0, a derivative of bacteriophage T4 (Zeilstra-Ryalls, J., Fayet, O., Baird, L. & Georgopoulos, C. (1993) J. Bacteriol. 175, 1134-1143), was used according to standard methods (Karam, J. D. (1994) Molecular biology of bacteriophage T4. (American Society for Microbiology, Washington, D.C.)); plaque formation was assayed at 37° C.
Bacteriophage λ requires the chaperonins GroES and GroEL for protein folding during morphogenesis; bacteriophage T4 requires GroEL and Gp31, the latter being encoded by the bacteriophage genome (Zeilstra-Ryalls, J., Fayet, O. & Georgopoulos, C. (1991) Annu. Rev. Microbiol. 45, 301-325). Nine groE alleles which fail to support λ growth have been sequenced (Zeilstra-Ryalls, J., Fayet, O., Baird, L. & Georgopoulos, C. (1993) J. Bacteriol. 175, 1134-1143). We examined the ability of MC7, over-expressed from the constitutive tet promoter on a high-copy number vector (see FIG. 2), to complement three mutant groEL alleles for plaque formation by λ (b2cI) at 30° C. (Table 3) and T4 at 37° C. (Table 4).

## GroEL (1-548): E. coli molecular chaperone, 14 subunits of 57.5 kD in two seven membered rings [reference compound]
[1]; after 120 min, FIG. 7c
  yield of refolded mtMDH: 6 nM
[1]; reactivation at 25° C., chaperone alone, FIG. 7b
  rate of refolding of denatured mtMDH: 0.04 nM/min
[2]; 0.00 % L(+)arabinose
  Plating ability: +++ (growth identical to that in presence of 0.2% L(+)arabinose (100%), in terms of both number and size)
[2]; 0.01 % L(+)arabinose
  Plating ability: +++ (growth identical to that in presence of 0.2% L(+)arabinose (100%), in terms of both number and size)
[2]; 0.10 % L(+)arabinose
  Plating ability: +++ (growth identical to that in presence of 0.2% L(+)arabinose (100%), in terms of both number and size)
[2]; 0.15 % L(+)arabinose
  Plating ability: +++ (growth identical to that in presence of 0.2% L(+)arabinose (100%), in terms of both number and size)
Bacteriophage T4 (T4D0)
  Growth of bacteriophage T4, SV1 (groEL^+): +++
  Growth of bacteriophage T4, SV2 groEL44: +++
  Growth of bacteriophage T4, SV3 groEL59: +++
  Growth of bacteriophage T4, SV6 groEL673: +++
